Laboratory results: patent US20140243322A1, “BIVALENT BROMODOMAIN LIGANDS, AND METHODS OF USING SAME” (Coferon, Inc., priority 2011, published 2014)
pEC50: −log10 of the molar value.

Columns and labels:
[1] = biological target: N-terminal His 6-tagged BRD2 tandem protein; experiment: Surface Plasmon Resonance (SPR) off-rate assay; assay type: binding; conditions: immobilized BRD2 tandem protein; saturating concentrations injected 5 minutes, buffer 20 minutes
Protocol: Surface Plasmon Resonance (SPR) Assay.
Off rates were determined using surface plasmon resonance measurements on a Bio-Rad ProteOn XPR 36 instrument. N-terminal His 6-tagged BRD2 tandem protein was immobilized by capturing on a ProteOn HTG sensor chip and then cross coupled to the surface using standard amine reactive chemistry. Selected bivalent inhibitors were injected on to the chip surface at saturating concentrations for 5 minutes followed by buffer for 20 minutes. The resulting sensorgrams were analyzed using the ProteOn XPR software to determine off-rates. Off rates for selected bivalent inhibitors were >100× slower when binding to the BRD2 tandem protein compared to the monovalent pharmacophores or compared to the bivalents binding to monobromodomain containing protein constructs.

MV4-11 cells = experiment: Inhibition of MV4-11 cell proliferation (Cell-Titer Glo); assay type: cell-based; conditions: Homo sapiens, 72 hours of growth, read-out: GI50 range
Protocol: Inhibition of MV4-11 Cell Proliferation.
MV4-11 cells (5000 cells in 50 μl volumes) in growth medium containing 10% FBS and 1% Pen/Strep were plated and grown overnight in 96 well plates and treated the next day with 3-fold dilutions of test compounds or with DMSO vehicle. After 72 hours of growth, 30 ul of Cell-Titer Glo reagent (Promega) was added to the wells and the plates incubated for 30 minutes. Luminescence was measured on a Spectramax M5 plate reader and GI50 values were calculated for each test compound.

Myc mRNA = experiment: Inhibition of Myc expression (Myc mRNA) in MV4-11 cells; assay type: cell-based; conditions: Homo sapiens, 4 hours of treatment, read-out: EC50 range, Myc mRNA normalized to GAPDH mRNA
Source text: Inhibition of Myc Expression.

CCNC(=O)C[C@@H]1N=C(c2ccc(Cl)cc2)c2cc(OCCOCCNC(=O)C[C@@H]3N=C(c4ccc(Cl)cc4)c4cc(OC)ccc4-n4c(C)nnc43)ccc2-n2c(C)nnc21 [BRD-B-03, N-(2-(2-(((4S)-6-(4-chlorophenyl)-4-(2-(ethylamino)-2-oxoethyl)-1-methyl-4H-benzo[f][1,2,4]triazolo[4,3-a][1,4]diazepin-8-yl)oxy)ethoxy)ethyl)-2-((4S)-6-(4-chlorophenyl)-8-methoxy-1-methyl-4H-benzo[f][1,2,4]triazolo[4,3-a][1,4]diazepin-4-yl)acetamide]
kd (off rate) [1]: 0.00011 s⁻¹
GI50 (MV4-11 cells): 30 to 100 nM

COc1ccc2c(c1)C(c1ccc(Cl)cc1)=N[C@@H](CC(=O)NCCOCCOCCOCCOCCNC(=O)C[C@@H]1N=C(c3ccc(Cl)cc3)c3cc(OC)ccc3-n3c(C)nnc31)c1nnc(C)n1-2 [BRD-B-16, (S)—N,N′-(3,6,9,12-tetraoxatetradecane-1,14-diyl)bis(2-((S)-6-(4-chlorophenyl)-8-methoxy-1-methyl-4H-benzo[f][1,2,4]triazolo[4,3-a][1,4]diazepin-4-yl)acetamide)]
pEC50 (Myc mRNA): 7.00 to 7.52
GI50 (MV4-11 cells): 30 to 100 nM

CCNC(=O)C[C@@H]1N=C(c2ccc(Cl)cc2)c2cc(OCCOCCOCCOCCOCCNC(=O)C[C@@H]3N=C(c4ccc(Cl)cc4)c4cc(OC)ccc4-n4c(C)nnc43)ccc2-n2c(C)nnc21 [BRD-B-12, N-(14-(((4S)-6-(4-chlorophenyl)-4-(2-(ethylamino)-2-oxoethyl)-1-methyl-4H-benzo[f][1,2,4]triazolo[4,3-a][1,4]diazepin-8-yl)oxy)-3,6,9,12-tetraoxatetradecyl)-2-((4S)-6-(4-chlorophenyl)-8-methoxy-1-methyl-4H-benzo[f][1,2,4]triazolo[4,3-a][1,4]diazepin-4-yl)acetamide]
pEC50 (Myc mRNA): 7.00 to 7.52
GI50 (MV4-11 cells): 0.1 to 30 nM

CCNC(=O)C[C@@H]1N=C(c2ccc(Cl)cc2)c2cc(OCCCNC(=O)C[C@@H]3N=C(c4ccc(Cl)cc4)c4cc(OC)ccc4-n4c(C)nnc43)ccc2-n2c(C)nnc21 [BRD-B-02, N-(3-(((4S)-6-(4-chlorophenyl)-4-(2-(ethylamino)-2-oxoethyl)-1-methyl-4H-benzo[f][1,2,4]triazolo[4,3-a][1,4]diazepin-8-yl)oxy)propyl)-2-((4S)-6-(4-chlorophenyl)-8-methoxy-1-methyl-4H-benzo[f][1,2,4]triazolo[4,3-a][1,4]diazepin-4-yl)acetamide]
kd (off rate) [1]: 0.00011 s⁻¹
pEC50 (Myc mRNA): 4.52 to 7.00
GI50 (MV4-11 cells): 0.1 to 30 nM

CCNC(=O)C[C@@H]1N=C(c2ccc(Cl)cc2)c2cc(OCCOCCOCCOCCOCCOCCOCCNC(=O)C[C@@H]3N=C(c4ccc(Cl)cc4)c4cc(OC)ccc4-n4c(C)nnc43)ccc2-n2c(C)nnc21 [BRD-B-14, N-(20-(((4S)-6-(4-chlorophenyl)-4-(2-(ethylamino)-2-oxoethyl)-1-methyl-4H-benzo[f][1,2,4]triazolo[4,3-a][1,4]diazepin-8-yl)oxy)-3,6,9,12,15,18-hexaoxaicosyl)-2-((4S)-6-(4-chlorophenyl)-8-methoxy-1-methyl-4H-benzo[f][1,2,4]triazolo[4,3-a][1,4]diazepin-4-yl)acetamide]
kd (off rate) [1]: 7.5e-05 s⁻¹
pEC50 (Myc mRNA): 7.52 to 10.00
GI50 (MV4-11 cells): 0.1 to 30 nM

CCNC(=O)C[C@@H]1N=C(c2ccc(Cl)cc2)c2cc(OCCOCCOCCOCCOCCOCCOCCOCCNC(=O)C[C@@H]3N=C(c4ccc(Cl)cc4)c4cc(OC)ccc4-n4c(C)nnc43)ccc2-n2c(C)nnc21 [BRD-B-15, N-(23-(((4S)-6-(4-chlorophenyl)-4-(2-(ethylamino)-2-oxoethyl)-1-methyl-4H-benzo[f][1,2,4]triazolo[4,3-a][1,4]diazepin-8-yl)oxy)-3,6,9,12,15,18,21-heptaoxatricosyl)-2-((4S)-6-(4-chlorophenyl)-8-methoxy-1-methyl-4H-benzo[f][1,2,4]triazolo[4,3-a][1,4]diazepin-4-yl)acetamide]
kd (off rate) [1]: 8.3e-05 s⁻¹
pEC50 (Myc mRNA): 4.52 to 7.00
GI50 (MV4-11 cells): 0.1 to 30 nM

COc1ccc2c(c1)C(c1ccc(Cl)cc1)=N[C@@H](CC(=O)NCCOCCOCCOCCOCCOCCOCCOCCNC(=O)C[C@@H]1N=C(c3ccc(Cl)cc3)c3cc(OC)ccc3-n3c(C)nnc31)c1nnc(C)n1-2 [BRD-B-19, (S)—N,N′-(3,6,9,12,15,18,21-heptaoxatricosane-1,23-diyl)bis(2-((S)-6-(4-chlorophenyl)-8-methoxy-1-methyl-4H-benzo[f][1,2,4]triazolo[4,3-a][1,4]diazepin-4-yl)acetamide)]
pEC50 (Myc mRNA): 4.52 to 7.00
GI50 (MV4-11 cells): 0.1 to 30 nM
